In ChEMBL document CHEMBL1201862, “PubChem BioAssay data set” (2004):
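The compound was tested at five concentrations on cells cultured in 96-well plates, with a 48-hour exposure period. Here, GI50 denotes the concentration required for 50% inhibition of growth.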 Calls of active or inactive are those of the source. Cut-off read from the data, not from the text of the source: active = GI50 up to about 1.1 µM and inactive = higher.

How the values were obtained:
Assay in all cases: inhibition of tumour cell growth, NCI panel, 48 h
786-0 = tested on: 786-0
A498 = tested on: A498
A549 = tested on: A549
ACHN = tested on: ACHN
BT-549 = tested on: BT-549
CAKI-1 = tested on: CAKI-1
CCRF-CEM = tested on: CCRF-CEM
COLO 205 = tested on: COLO 205
DU-145 = tested on: DU-145
EKVX = tested on: EKVX
HCC 2998 = tested on: HCC 2998
HCT-116 = tested on: HCT-116
HCT-15 = tested on: HCT-15
HL-60 = tested on: HL-60
HOP-92 = tested on: HOP-92
HT-29 = tested on: HT-29
Hs-578T = tested on: Hs-578T
IGROV-1 = tested on: IGROV-1
K562 = tested on: K562
KM12 = tested on: KM12
LOX IMVI = tested on: LOX IMVI
M14 = tested on: M14
MCF7 = tested on: MCF7
MDA-MB-231 = tested on: MDA-MB-231
MDA-MB-435 = tested on: MDA-MB-435
MDA-N = tested on: MDA-N
MOLT-4 = tested on: MOLT-4
Malme-3M = tested on: Malme-3M
NCI-H226 = tested on: NCI-H226
NCI-H23 = tested on: NCI-H23
NCI-H460 = tested on: NCI-H460
NCI-H522 = tested on: NCI-H522
NCI/ADR-RES = tested on: NCI/ADR-RES
OVCAR-3 = tested on: OVCAR-3
OVCAR-4 = tested on: OVCAR-4
OVCAR-5 = tested on: OVCAR-5
OVCAR-8 = tested on: OVCAR-8
PC-3 = tested on: PC-3
RPMI-8226 = tested on: RPMI-8226
RXF 393 = tested on: RXF 393
SF-268 = tested on: SF-268
SF-295 = tested on: SF-295
SF-539 = tested on: SF-539
SK-MEL-28 = tested on: SK-MEL-28
SK-MEL-2 = tested on: SK-MEL-2
SK-OV-3 = tested on: SK-OV-3
SN12C = tested on: SN12C
SNB-19 = tested on: SNB-19
SNB-75 = tested on: SNB-75
SR = tested on: SR
SW-620 = tested on: SW-620
T47D = tested on: T47D
U-251 = tested on: U-251
UACC-257 = tested on: UACC-257
UACC-62 = tested on: UACC-62
UO-31 = tested on: UO-31

## CC(=O)Nc1cc2nc3n(c2cc1C)CCC3OC(C)=O (stereo unspecified)
786-0
  GI50: > 100 µM (inactive)
A498
  GI50: > 100 µM (inactive)
A549
  GI50: > 100 µM (inactive)
ACHN
  GI50: > 100 µM (inactive)
BT-549
  GI50: > 100 µM (inactive)
CAKI-1
  GI50: > 100 µM (inactive)
CCRF-CEM
  GI50: > 100 µM (inactive)
COLO 205
  GI50: > 100 µM (inactive)
DU-145
  GI50: > 100 µM (inactive)
EKVX
  GI50: > 100 µM (inactive)
HCC 2998
  GI50: > 100 µM (inactive)
HCT-116
  GI50: > 100 µM (inactive)
HCT-15
  GI50: > 100 µM
HL-60
  GI50: > 100 µM (inactive)
HOP-92
  GI50: > 100 µM (inactive)
HT-29
  GI50: > 100 µM (inactive)
Hs-578T
  GI50: > 100 µM (inactive)
IGROV-1
  GI50: > 100 µM (inactive)
K562
  GI50: > 100 µM (inactive)
KM12
  GI50: > 100 µM (inactive)
LOX IMVI
  GI50: > 100 µM (inactive)
M14
  GI50: > 100 µM (inactive)
MCF7
  GI50: > 100 µM (inactive)
MDA-MB-231
  GI50: > 100 µM (inactive)
MDA-MB-435
  GI50: > 100 µM (inactive)
MDA-N
  GI50: > 100 µM (inactive)
MOLT-4
  GI50: > 100 µM (inactive)
Malme-3M
  GI50: > 100 µM (inactive)
NCI-H226
  GI50: > 100 µM (inactive)
NCI-H23
  GI50: > 100 µM (inactive)
NCI-H460
  GI50: > 100 µM (inactive)
NCI-H522
  GI50: > 100 µM (inactive)
NCI/ADR-RES
  GI50: > 100 µM (inactive)
OVCAR-3
  GI50: > 100 µM (inactive)
OVCAR-4
  GI50: > 100 µM (inactive)
OVCAR-5
  GI50: > 100 µM (inactive)
OVCAR-8
  GI50: > 100 µM (inactive)
PC-3
  GI50: > 100 µM (inactive)
RPMI-8226
  GI50: > 100 µM (inactive)
RXF 393
  GI50: > 100 µM (inactive)
SF-268
  GI50: > 100 µM (inactive)
SF-295
  GI50: > 100 µM (inactive)
SF-539
  GI50: > 100 µM (inactive)
SK-MEL-28
  GI50: > 100 µM (inactive)
SK-MEL-2
  GI50: > 100 µM (inactive)
SK-OV-3
  GI50: > 100 µM (inactive)
SN12C
  GI50: > 100 µM (inactive)
SNB-19
  GI50: > 100 µM (inactive)
SNB-75
  GI50: > 100 µM (inactive)
SR
  GI50: > 100 µM (inactive)
SW-620
  GI50: > 100 µM (inactive)
T47D
  GI50: > 100 µM (inactive)
U-251
  GI50: > 100 µM (inactive)
UACC-257
  GI50: > 100 µM (inactive)
UACC-62
  GI50: > 100 µM (inactive)
UO-31
  GI50: > 100 µM (inactive)
